Source: patent US20090176847A1, “Dicyclooctane Derivatives, Preparation Processes and Medical Uses Thereof” (priority 2006, published 2009)
Structures can show the parent of a compound that is named as a salt.

Key:
[1] = target: T1, Dipeptidylpeptidase IV, Human Placenta (Homo sapiens, UniProt P27487); test: Active inhibition DPP IV assay (DPP IV-Glo Protease Assay Kit, chemical luminescent); assay type: biochemical; conditions: chemiluminescence, two parallel treatments
T1 construct: Dipeptidylpeptidase IV, Human Placenta (cat. 317630) of Calbiochem company; purchased Calbiochem 317630; host or cells: human placenta (tissue-derived natural enzyme)
T1 sequence (P27487 whole entry): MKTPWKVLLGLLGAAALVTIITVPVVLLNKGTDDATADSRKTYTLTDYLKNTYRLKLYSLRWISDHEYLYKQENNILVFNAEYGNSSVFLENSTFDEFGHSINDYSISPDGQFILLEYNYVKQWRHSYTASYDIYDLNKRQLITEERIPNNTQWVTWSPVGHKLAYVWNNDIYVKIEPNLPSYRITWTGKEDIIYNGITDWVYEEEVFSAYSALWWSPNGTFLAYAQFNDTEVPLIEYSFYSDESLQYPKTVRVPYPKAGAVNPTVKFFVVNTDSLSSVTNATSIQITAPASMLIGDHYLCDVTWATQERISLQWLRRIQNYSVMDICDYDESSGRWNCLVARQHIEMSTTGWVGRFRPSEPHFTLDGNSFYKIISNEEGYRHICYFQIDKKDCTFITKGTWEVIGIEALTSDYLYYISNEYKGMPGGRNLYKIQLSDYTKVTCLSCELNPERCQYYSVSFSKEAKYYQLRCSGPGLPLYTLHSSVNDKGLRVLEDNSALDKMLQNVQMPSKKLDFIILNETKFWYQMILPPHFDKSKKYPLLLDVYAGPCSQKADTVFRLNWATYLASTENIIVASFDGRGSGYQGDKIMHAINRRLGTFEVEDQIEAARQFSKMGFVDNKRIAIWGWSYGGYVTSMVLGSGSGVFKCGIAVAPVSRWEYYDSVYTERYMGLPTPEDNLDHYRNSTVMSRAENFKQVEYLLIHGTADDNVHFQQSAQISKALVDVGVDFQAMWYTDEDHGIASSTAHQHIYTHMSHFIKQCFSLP
Method: IC50 is determined by a NovoStar ELIASA (BMG Co. German).
According to the manual of the kit, this invention inspected the amount of the each reagent in the experimental, corresponding amount of DPPIV enzyme and chemiluminescence detection methods.

normal ICR mice = test: Preliminary evaluation of hypoglycemic activity: effects on glucose tolerance in normal ICR mice; assay type: in vivo; conditions: oral 0.3, 1, 3, 10 mg/kg, serum glucose
Method: Effects on glucose tolerance in normal ICR mice of examples 15 and 16 were determined. Hypoglycemic activities in vivo were preliminary evaluated. Preparation procedure: drugs were accurately weighed and dissolved in double-distilled water, misce bene to obtain 0.5 mg/ml suspension, then diluted into colorless and clear solutions which concentration were 0.15, 0.05 and 0.015 mg/ml. Administrated Dose: the oral doses were 0.3, 1, 3, 10 mg/kg and the volume was 20 ml/kg. […] Glucose kits was used in the determination of serum glucose levels. Take 250 μl enzyme fluid, then add 5 μl serum. Establish blank tube (by added 5 μl double-distilled) and the standard tube (by added 5 μl standard glucose solution) simultaneously, misce bene. 37° C. water bath for 20 min. To adjust to zero value with blank tube, OD(505 nm) levels were determined. Serum glucose level BG(mmol/l)=ODsample tube/ODstandard tube×5.55.

| SMILES | IC50 [1] | inhibitor activity of DPPIV in vivo (hypoglycemic activity, glucose tolerance) (normal ICR mice) | in vivo activity compared with positive control LAF-237 (normal ICR mice) |
| --- | --- | --- | --- |
| N#CC1CCCN1C(=O)CNC1CC2CC(OC(=O)Nc3ccccc3)CC2C1 (stereo not shown) [Example 6, 5-[2-(2-cyano-pyrrolidin-1-yl)-2-oxo-ethylamino]-octahydro-pentalen-2-yl phenyl-carbamate hydrochloride] | 121 nM | – | – |
| CC(C)NC(=O)OC1CC2CC(NCC(=O)N3CCCC3C#N)CC2C1 (stereo not shown) [Example 7, 5-[2-(2-cyano-pyrrolidin-1-yl)-2-oxo-ethylamino]-octahydro-pentalen-2-yl isopropyl-carbamate hydrochloride] | 204 nM | – | – |
| Cl.N#CC1CCCN1C(=O)CNC1CC2CC(=O)CC2C1 (stereo not shown) [Example 15, 1-[2-(5-oxo-octahydro-pentalen-2-ylamino)-acetyl]-pyrrolidine-2-carbonitrile hydrochloride] | – | good inhibitor activities of DPPIV in vivo | – |
| CC(C)(C)NC(=O)OC1CC2CC(NCC(=O)N3CCCC3C#N)CC2C1 (stereo not shown) [Example 8, 5-[2-(2-cyano-pyrrolidin-1-yl)-2-oxo-ethylamino]-octahydro-pentalen-2-yl tert-butyl-carbamate hydrochloride] | 326 nM | – | – |
| Cl.N#CC1CCCN1C(=O)CNC1CC2CC(O)CC2C1 (stereo not shown) [Example 16, 1-(2-(5-hydroxyl-octahydro-pentalen-2-ylamino)-acetyl)pyrrolidine-2-carbonitrile hydrochloride] | – | good inhibitor activities of DPPIV in vivo | slightly better than LAF-237 |
| CCCCC1(O)CC2CC(NCC(=O)N3CCCC3C#N)CC2C1 (stereo not shown) [Example 10, 1-[2-(5-butyl-5-hydroxy-octahydro-pentalen-2-ylamino)-acetyl]-pyrrolidine-2-carbonitrilehydrochloride] | 18.3 nM | – | – |
